ChEMBL document CHEMBL5053557, “Discovery of Novel Dual-Target Inhibitor of Bromodomain-Containing Protein 4/Casein Kinase 2 Inducing Apoptosis and Autophagy-Associated Cell Death for Triple-Negative Breast Cancer Therapy” (J Med Chem, 2021)
The source made the active and inactive calls. No cut-off for these calls is given here.

Tests used:
[1] = biological target: T1, Bromodomain-containing protein 2 (Homo sapiens, UniProt P25440); experiment: Inhibition of BRD2 BD1 (unknown origin) incubated for 2 hrs by TR-FRET assay
[2] = biological target: T1, Bromodomain-containing protein 2; experiment: Inhibition of BRD2 BD2 (unknown origin) incubated for 2 hrs by TR-FRET assay
[3] = biological target: Bromodomain-containing protein 3 (Homo sapiens, UniProt Q15059); experiment: Inhibition of BRD3 BD2 (unknown origin) incubated for 2 hrs by TR-FRET assay
[4] = biological target: T2, Bromodomain-containing protein 4 (Homo sapiens, UniProt O60885); experiment: Inhibition of BRD4 BD1 (unknown origin) incubated for 2 hrs by TR-FRET assay
[5] = biological target: T2, Bromodomain-containing protein 4; experiment: Inhibition of BRD4 BD2 (unknown origin) incubated for 2 hrs by TR-FRET assay
[6] = biological target: Bromodomain testis-specific protein (Homo sapiens, UniProt Q58F21); experiment: Inhibition of BRDT BD2 (unknown origin) incubated for 2 hrs by TR-FRET assay
MDA-MB-231 [7] = experiment: Inhibition of colony formation in human MDA-MB-231 cells after 7 days by crystal violet staining based assay; type: functional, cell-based; details: dose 2.5-10 µM, time 7.0 day
MDA-MB-468 [8] = experiment: Inhibition of colony formation in human MDA-MB-468 cells after 7 days by crystal violet staining based assay; type: functional, cell-based; details: dose 2.5-10 µM, time 7.0 day
MDA-MB-231 [9] = experiment: Induction of apoptosis in human MDA-MB-231 cells after 24 hrs by Hoechst 33258 staining fluorescence microscopic analysis; type: functional, cell-based; details: dose 2.5-10 µM
MDA-MB-468 [10] = experiment: Induction of apoptosis in human MDA-MB-468 cells after 24 hrs by Annexin V-FITC/propidium iodide staining based flow cytometry; type: functional, cell-based; details: dose 2.5-10 µM
MDA-MB-231 [11] = experiment: Induction of apoptosis in human MDA-MB-231 cells assessed as down regulation of Bcl2 after 24 hrs by Western blot analysis; type: functional, cell-based; details: dose 2.5-10 µM
MDA-MB-231 [12] = experiment: Induction of apoptosis in human MDA-MB-231 cells assessed as up regulation of Bax after 24 hrs by Western blot analysis; type: functional, cell-based; details: dose 2.5-10 µM
MDA-MB-468 [13] = experiment: Induction of apoptosis in human MDA-MB-468 cells assessed as up regulation of Bax after 24 hrs by Western blot analysis; type: functional, cell-based; details: dose 2.5-10 µM
MDA-MB-468 [14] = experiment: Induction of apoptosis in human MDA-MB-468 cells assessed as up regulation of cleaved caspase 3 after 24 hrs by Western blot analysis; type: functional, cell-based; details: dose 2.5-10 µM
MDA-MB-468 [15] = experiment: Induction of autophagy in human MDA-MB-468 cells harboring GFP-mRFP-LC3 assessed as autophagic flux at 5 uM after 24 hrs by fluorescence microscopic analysis; type: functional, cell-based
MDA-MB-231 [16] = experiment: Induction of autophagy in human MDA-MB-231 cells harboring GFP-mRFP-LC3 assessed as down regulation of p62 level at 5 uM after 24 hrs by Western blot analysis; type: functional, cell-based
MDA-MB-231 [17] = experiment: Induction of autophagy in human MDA-MB-231 cells harboring GFP-mRFP-LC3 assessed as up regulation of beclin 1 level at 2.5 to 10 uM after 24 hrs by Western blot analysis; type: functional, cell-based; details: dose 2.5-10 µM
MDA-MB-231 [18] = experiment: Induction of autophagy in human MDA-MB-231 cells harboring GFP-mRFP-LC3 assessed as up regulation of LC3II level at 2.5 to 10 uM after 24 hrs by Western blot analysis; type: functional, cell-based; details: dose 2.5-10 µM
MDA-MB-468 [19] = experiment: Induction of autophagy in human MDA-MB-468 cells harboring GFP-mRFP-LC3 assessed as up regulation of LC3II level at 2.5 to 10 uM after 24 hrs by Western blot analysis; type: functional, cell-based; details: dose 2.5-10 µM
MDA-MB-231 [20] = experiment: Induction of autophagy in human MDA-MB-231 cells at 5 uM preincubated with 3-MA for 1 hr followed by compound addition and measured after 24 hrs by fluorescence microscopic analysis; type: functional, cell-based
MDA-MB-468 [21] = experiment: Induction of autophagy in human MDA-MB-468 cells at 5 uM preincubated with 3-MA for 1 hr followed by compound addition and measured after 24 hrs by fluorescence microscopic analysis; type: functional, cell-based
MDA-MB-231 [22] = experiment: Inhibition of colony formation in human MDA-MB-231 cells at 5 uM after 7 days in presence of 3-MA by crystal violet staining based assay; type: functional, cell-based; details: time 7.0 day
MDA-MB-468 [23] = experiment: Inhibition of colony formation in human MDA-MB-468 cells at 5 uM after 7 days in presence of 3-MA by crystal violet staining based assay; type: functional, cell-based; details: time 7.0 day
MDA-MB-468 [24] = experiment: Induction of apoptosis in human MDA-MB-468 cells at 5 uM preincubated with 3-MA for 1 hr followed by compound addition and measured after 24 hrs by Annexin V-FITC/propidium iodide staining based flow cytometric analysis; type: functional, cell-based
[25] = Half life in Sprague-Dawley rat at 1 mg/kg, iv by LC-MS analysis; type: ADME, organism-based; details: in vivo
[26] = Half life in Sprague-Dawley rat at 10 mg/kg, po by LC-MS analysis; type: ADME, organism-based; details: in vivo
[27] = Cmax in Sprague-Dawley rat at 1 mg/kg, iv by LC-MS analysis; type: ADME, organism-based; design: dose 1 mg/kg, route iv; details: in vivo
[28] = Cmax in Sprague-Dawley rat at 10 mg/kg, po by LC-MS analysis; type: ADME, organism-based; design: dose 10 mg/kg, route po; details: in vivo
[29] = AUC(0 to t) in Sprague-Dawley rat at 10 mg/kg, po by LC-MS analysis; type: ADME, organism-based; design: dose 10 mg/kg, route po; details: in vivo
[30] = Apparent volume of distribution in Sprague-Dawley rat at 1 mg/kg, iv by LC-MS analysis; type: ADME, organism-based; details: in vivo, read-out: Vz
MDA-MB-231 [31] = experiment: Antitumor activity against human MDA-MB-231 cells xenografted in po dosed nude BALB/c mouse assessed as tumor growth inhibition administered once daily for 19 days and measured every 3 days; type: functional, organism-based; details: dose lower […], dose upper 50.0 mg/kg, time 19.0 day
Mus musculus [32] = experiment: Toxicity in nude BALB/c mouse xenografted with human MDA-MB-468 cells assessed as mortality at 25 to 50 mg/kg, po administered once daily for 19 days and measured every 3 days; type: organism-based; details: in vivo, 456 h, dose 25-50 mg/kg, time 19 day
Mus musculus [33] = experiment: Toxicity in nude BALB/c mouse xenografted with human MDA-MB-468 cells assessed as morphological changes in heart at 25 to 50 mg/kg, po administered once daily for 19 days and measured every 3 days by H and E staining based assay; type: organism-based; details: in vivo, 456 h, dose 25-50 mg/kg, time 19 day
Mus musculus [34] = experiment: Toxicity in nude BALB/c mouse xenografted with human MDA-MB-468 cells assessed as morphological changes in kidney at 25 to 50 mg/kg, po administered once daily for 19 days and measured every 3 days by H and E staining based assay; type: organism-based; details: in vivo, 456 h, dose 25-50 mg/kg, time 19 day
Mus musculus [35] = experiment: Toxicity in nude BALB/c mouse xenografted with human MDA-MB-231 cells assessed as morphological changes in liver at 25 to 50 mg/kg, po administered once daily for 19 days and measured every 3 days by H and E staining based assay; type: organism-based; details: in vivo, 456 h, dose 25-50 mg/kg, time 19 day
Mus musculus [36] = experiment: Toxicity in nude BALB/c mouse xenografted with human MDA-MB-231 cells assessed as morphological changes in heart at 25 to 50 mg/kg, po administered once daily for 19 days and measured every 3 days by H and E staining based assay; type: organism-based; details: in vivo, 456 h, dose 25-50 mg/kg, time 19 day
MDA-MB-231 [37] = experiment: Antitumor activity against human MDA-MB-231 cells xenografted in nude BALB/c mouse assessed as tumor growth inhibition at 25 to 50 mg/kg, po administered once daily for 19 days and measured every 3 days by Ki-67 staining based immunohistochemical analysis; type: functional, organism-based; details: dose lower […], dose upper 50.0 mg/kg, time 19.0 day

T1 sequence (P25440 whole entry): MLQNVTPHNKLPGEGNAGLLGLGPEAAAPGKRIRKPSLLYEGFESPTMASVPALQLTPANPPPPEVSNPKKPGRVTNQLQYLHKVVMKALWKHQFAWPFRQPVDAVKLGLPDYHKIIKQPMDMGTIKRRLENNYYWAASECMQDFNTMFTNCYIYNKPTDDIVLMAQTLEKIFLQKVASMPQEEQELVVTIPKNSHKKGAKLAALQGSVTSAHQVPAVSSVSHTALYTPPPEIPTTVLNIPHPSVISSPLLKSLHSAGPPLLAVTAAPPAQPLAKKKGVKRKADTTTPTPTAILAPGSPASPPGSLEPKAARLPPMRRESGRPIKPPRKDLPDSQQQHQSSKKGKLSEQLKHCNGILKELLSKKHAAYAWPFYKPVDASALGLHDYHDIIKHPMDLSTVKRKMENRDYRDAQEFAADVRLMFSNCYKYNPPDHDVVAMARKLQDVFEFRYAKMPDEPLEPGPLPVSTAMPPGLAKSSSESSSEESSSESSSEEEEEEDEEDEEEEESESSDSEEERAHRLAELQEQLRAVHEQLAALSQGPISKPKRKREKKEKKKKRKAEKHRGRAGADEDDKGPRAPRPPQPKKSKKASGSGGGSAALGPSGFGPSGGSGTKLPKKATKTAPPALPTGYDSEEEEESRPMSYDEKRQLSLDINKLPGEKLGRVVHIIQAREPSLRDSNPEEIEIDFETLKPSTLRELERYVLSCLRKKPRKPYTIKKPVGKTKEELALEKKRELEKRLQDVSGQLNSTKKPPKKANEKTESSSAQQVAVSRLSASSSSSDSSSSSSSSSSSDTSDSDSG
Bromodomain-containing protein 3, sequence (Q15059 whole entry): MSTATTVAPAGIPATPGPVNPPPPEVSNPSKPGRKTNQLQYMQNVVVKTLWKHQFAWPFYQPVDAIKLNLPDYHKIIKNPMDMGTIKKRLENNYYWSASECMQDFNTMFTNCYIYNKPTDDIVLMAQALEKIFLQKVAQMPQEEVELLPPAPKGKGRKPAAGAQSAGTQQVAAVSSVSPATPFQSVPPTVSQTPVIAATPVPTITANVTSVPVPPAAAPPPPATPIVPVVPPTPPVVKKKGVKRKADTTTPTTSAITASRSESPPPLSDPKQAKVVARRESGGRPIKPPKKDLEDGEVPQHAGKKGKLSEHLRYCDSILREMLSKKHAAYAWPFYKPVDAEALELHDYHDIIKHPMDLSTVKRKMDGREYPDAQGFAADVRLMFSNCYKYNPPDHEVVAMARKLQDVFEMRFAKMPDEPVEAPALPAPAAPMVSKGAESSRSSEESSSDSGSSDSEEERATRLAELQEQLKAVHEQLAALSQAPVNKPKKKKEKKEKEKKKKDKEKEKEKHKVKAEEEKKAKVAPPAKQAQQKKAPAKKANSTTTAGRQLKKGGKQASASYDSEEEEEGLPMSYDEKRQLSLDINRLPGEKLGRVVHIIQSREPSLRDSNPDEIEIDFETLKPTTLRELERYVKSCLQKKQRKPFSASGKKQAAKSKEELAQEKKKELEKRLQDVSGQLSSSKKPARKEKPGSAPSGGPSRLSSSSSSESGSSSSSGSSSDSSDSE

## COc1cc(OC)c2c(=O)[nH]c(-c3ccc(OCC(=O)Nc4ccc(N5CCN(C)CC5)c(Cl)c4)cc3)nc2c1
[1]
  IC50: > 10 µM
[2]
  IC50: 8.7 µM
[3]
  IC50: > 10 µM
[4]
  IC50: 0.193 µM
[5]
  IC50: 0.098 µM
[6]
  IC50: > 10 µM
MDA-MB-231 [7]
  inhibition: Dose-dependent effect
MDA-MB-468 [8]
  inhibition: Dose-dependent effect
MDA-MB-231 [9]
  Activity: Dose-dependent effect
MDA-MB-468 [10]
  Activity: Dose-dependent effect
MDA-MB-231 [11]
  Activity: Dose-dependent effect
MDA-MB-231 [12]
  Activity: Dose-dependent effect
MDA-MB-468 [13]
  Activity: Dose-dependent effect
MDA-MB-468 [14]
  Activity: Dose-dependent effect
MDA-MB-468 [15]
  Activity: Active
MDA-MB-231 [16]
  Activity: Active
MDA-MB-231 [17]
  Activity: Active
MDA-MB-231 [18]
  Activity: Active
MDA-MB-468 [19]
  Activity: Active
MDA-MB-231 [20]
  Activity: inactive
MDA-MB-468 [21]
  Activity: inactive
MDA-MB-231 [22]
  inhibition: inactive
MDA-MB-468 [23]
  inhibition: inactive
MDA-MB-468 [24]
  Activity: inactive
[25]
  half-life: 4.21 h
[26]
  half-life: 5.17 h
[27]
  Cmax: 237 ng/mL
[28]
  Cmax: 206 ng/mL
[29]
  AUC(0-t): 2080 ng·h/mL
[30]
  Vd: 21.1 L/kg
MDA-MB-231 [31]
  Activity: Active
Mus musculus [32]
  Activity: Non-Toxic
Mus musculus [33]
  Activity: Non-Toxic
Mus musculus [34]
  Activity: Non-Toxic
Mus musculus [35]
  Activity: Non-Toxic
Mus musculus [36]
  Activity: Non-Toxic
MDA-MB-231 [37]
  Activity: Active
